In patent US10138275B2, “Crystalline powder of cyclic peptide compound, preparation method for same, and uses thereof” (SHANGHAI TECHWELL BIOPHARMACEUTICAL CO., LTD, priority 2014, dated 2018):
Starred links: 1 amine or outer side, 2 acyl side, 3 side chain; linkers in the order of their positions; H or OH if unused. Positions of bridges follow the written chain, without caps; N, C: chain ends. Non-standard residues stand in square brackets, D forms with d. Residues, ends and D or L forms follow the SMILES beside them. *: point of attachment. hTyr(3S-OH,4S-OH,3'-OSO3H) = N[C@H](C(=O)O)[C@H](O)[C@@H](O)c1ccc(O)c(OS(=O)(=O)O)c1; Orn(4R-OH,5R-OH) = O=C([C@H](C[C@@H](O)[C@@H](O)N[*:3])N[*:1])[*:2]; Pro(3S-OH,4S-Me) = C[C@H]1CN[C@H](C(=O)O)[C@H]1O; X1 = CCCCCOc1ccc(-c2cc(-c3ccc(C(=O)*)cc3)no2)cc1; Gln(3R-OH) = NC(=O)C[C@@H](O)[C@H](N)C(=O)O; Hyp = O=C(O)[C@@H]1C[C@@H](O)CN1

What was measured:
Format in all cases: physicochemical
[1] = Particle size distribution (d10, d50) by Malvern particle size analyzer / laser diffraction; conditions: after drying
Method: […] Wherein, d10 and d50 are means known for indicating the particle size distribution. d50 refers to a value of particle size, and the size of 50 vol/% of particles is smaller than said value. D10 refers to a value of particle size, and the size of 10 vol/% of particles is smaller than said value. The preferred method for determining d10 and d50 is laser diffraction, d50 of the crystalline powder of the compound of formula I according to the present invention is determined as 10-100 um, and d10 is determined as 1-9 um. Preferably, d50 of the crystalline powder is 20-50 um, and d10 thereof is 1-5 um. Before solid-liquid separation, d50 of the crystalline powder of the compound of formula I is 10-100 um, and d10 thereof is 1-9 um. Preferably, d50 of the crystalline powder is 20-50 um, and d10 thereof is 3-6 um.

[2] = Bulk density of powder by cylinder measurement; conditions: after drying
Method: “Bulk density of powder” is a measurement standard for the relative importance of the interaction between microparticles by comparing the bulk density and tapped density of the powder. Methods for measuring bulk density of powder are known in the art; for example, it can be determined by cylinder measurement, volumetric measurement, and container measurement. Bulk density of the crystalline powder of the compound of formula I according to the present invention is determined as less than 0.7 g/mL, preferably less than 0.6 g/mL, most preferably less than 0.5 g/mL, by cylinder measurement.

[3] = Ratio of dry weight to wet weight (Dry/Wet) of filtered solids; conditions: wet solids weighed after filtration, before drying
From the text: As used herein, the term “Dry/Wet” and “ratio of dry weight to wet weight” can be used interchangeably, both of which refer to the ratio of the weight of a compound without solvent(s) to the weight of the compound with solvent(s). In the present invention, wet weight of crystals is obtained by filtering the crystallized solids until no noticeable droplet outflows and weighing the solids.

[4] = Vacuum-drying at 25° C. with a water system until no organic solvent detected by GC; purity by HPLC; conditions: for time Needed (for drying): 25° C., vacuum-drying with a water system until no organic solvent detected by GC; for Purity before drying / Purity after drying: HPLC; for Purity before drying: 5 g of solids; for Purity after drying: vacuum-dried at 25° C. with a water system until no organic solvent detected by GC
From the text: High performance liquid chromatography (HPLC) is a common method for determining the purity of a compound, wherein a liquid is used as the mobile phase and a high-pressure transfusion system is used for pumping the mobile phase, such as single solvents with different polarities, a mixture of solvents at different proportions, or buffers, into a column packed with a stationary phase. Each component is separated in the column, and then enters into a detector for detection, thereby analyzing a sample. In the present invention, HPLC is used for determining the purity of the compound of formula I and studying the stability of a sample. Conditions of the HPLC method are listed as follows:
Analysis Column: YMC-ODS 250×4.6 mm, 5 μm;
Mobile phase: acetonitrile:phosphate buffer (pH 3.0)=45:70;
Column temperature: 35° C.;
Diluent: aqueous phosphate buffer;
Detection wavelength: 210 nm;
Gas chromatography (GC) used to separate and measure trace impurities in a compound is an accurate, qualitative and quantitative method of analysis. In the present invention, the content of organic solvents in the crystalline powder of the compound of formula I obtained in the present invention is measured by gas chromatography (GC).
5 g of solids were prepared according to the methods of Examples 2-10 and Comparative Examples 1-3 respectively, placed at 25° C., and vacuum-dried together with a water system until no organic solvent was detected through GC. The time for drying was compared, and the purity of the sample was analyzed.

Row | SMILES | d10, particle size of the crystalline powder [1] [um] | d50, particle size of the crystalline powder [1] [um] | Bulk density [2] [g/mL] | ratio of dry weight to wet weight (Dry/Wet) [3] | time Needed (for drying) [4] [h] | Purity before drying [4] [%] | Purity after drying [4] [%]
1 | CCCCCOc1ccc(-c2cc(-c3ccc(C(=O)N[C@H]4C[C@@H](O)[C@@H](O)NC(=O)[C@@H]5[C@@H](O)[C@@H](C)CN5C(=O)[C@H]([C@H](O)CC(N)=O)NC(=O)[C@H]([C@H](O)[C@@H](O)c5ccc(O)c(OS(=O)(=O)[O-])c5)NC(=O)[C@@H]5C[C@@H](O)CN5C(=O)[C@H]([C@@H](C)O)NC4=O)cc3)no2)cc1.[Na+] [Example 3] (X1-[Orn(4R-OH,5R-OH)]T[Hyp][hTyr(3S-OH,4S-OH,3'-OSO3H)][Gln(3R-OH)][Pro(3S-OH,4S-Me)]; lactam 1-C) | 3.7 | 43.1 | 0.43 | 0.52 | 6.5 | 99.63 | 99.61
2 | CCCCCOc1ccc(-c2cc(-c3ccc(C(=O)N[C@H]4C[C@@H](O)[C@@H](O)NC(=O)[C@@H]5[C@@H](O)[C@@H](C)CN5C(=O)[C@H]([C@H](O)CC(N)=O)NC(=O)[C@H]([C@H](O)[C@@H](O)c5ccc(O)c(OS(=O)(=O)[O-])c5)NC(=O)[C@@H]5C[C@@H](O)CN5C(=O)[C@H]([C@@H](C)O)NC4=O)cc3)no2)cc1.[Na+] [Example 9] (X1-[Orn(4R-OH,5R-OH)]T[Hyp][hTyr(3S-OH,4S-OH,3'-OSO3H)][Gln(3R-OH)][Pro(3S-OH,4S-Me)]; lactam 1-C) | 1.3 | 20 | 0.54 | 0.62 | 8.5 | 99.42 | 99.38
3 | CCCCCOc1ccc(-c2cc(-c3ccc(C(=O)N[C@H]4C[C@@H](O)[C@@H](O)NC(=O)[C@@H]5[C@@H](O)[C@@H](C)CN5C(=O)[C@H]([C@H](O)CC(N)=O)NC(=O)[C@H]([C@H](O)[C@@H](O)c5ccc(O)c(OS(=O)(=O)[O-])c5)NC(=O)[C@@H]5C[C@@H](O)CN5C(=O)[C@H]([C@@H](C)O)NC4=O)cc3)no2)cc1.[Na+] [Example 2] (X1-[Orn(4R-OH,5R-OH)]T[Hyp][hTyr(3S-OH,4S-OH,3'-OSO3H)][Gln(3R-OH)][Pro(3S-OH,4S-Me)]; lactam 1-C) | 3 | 31.9 | 0.45 | 0.45 | 7 | 99.68 | 99.68
4 | CCCCCOc1ccc(-c2cc(-c3ccc(C(=O)N[C@H]4C[C@@H](O)[C@@H](O)NC(=O)[C@@H]5[C@@H](O)[C@@H](C)CN5C(=O)[C@H]([C@H](O)CC(N)=O)NC(=O)[C@H]([C@H](O)[C@@H](O)c5ccc(O)c(OS(=O)(=O)[O-])c5)NC(=O)[C@@H]5C[C@@H](O)CN5C(=O)[C@H]([C@@H](C)O)NC4=O)cc3)no2)cc1.[Na+] [Example 5] (X1-[Orn(4R-OH,5R-OH)]T[Hyp][hTyr(3S-OH,4S-OH,3'-OSO3H)][Gln(3R-OH)][Pro(3S-OH,4S-Me)]; lactam 1-C) | 9 | 97.7 | 0.6 | 0.66 | 10 | 99.52 | 99.47
5 | CCCCCOc1ccc(-c2cc(-c3ccc(C(=O)N[C@H]4C[C@@H](O)[C@@H](O)NC(=O)[C@@H]5[C@@H](O)[C@@H](C)CN5C(=O)[C@H]([C@H](O)CC(N)=O)NC(=O)[C@H]([C@H](O)[C@@H](O)c5ccc(O)c(OS(=O)(=O)[O-])c5)NC(=O)[C@@H]5C[C@@H](O)CN5C(=O)[C@H]([C@@H](C)O)NC4=O)cc3)no2)cc1.[Na+] [Comparative Example 6] (X1-[Orn(4R-OH,5R-OH)]T[Hyp][hTyr(3S-OH,4S-OH,3'-OSO3H)][Gln(3R-OH)][Pro(3S-OH,4S-Me)]; lactam 1-C) |  |  |  | 0.21 |  |  | 
6 | CCCCCOc1ccc(-c2cc(-c3ccc(C(=O)N[C@H]4C[C@@H](O)[C@@H](O)NC(=O)[C@@H]5[C@@H](O)[C@@H](C)CN5C(=O)[C@H]([C@H](O)CC(N)=O)NC(=O)[C@H]([C@H](O)[C@@H](O)c5ccc(O)c(OS(=O)(=O)[O-])c5)NC(=O)[C@@H]5C[C@@H](O)CN5C(=O)[C@H]([C@@H](C)O)NC4=O)cc3)no2)cc1.[Na+] [Comparative Example 12] (X1-[Orn(4R-OH,5R-OH)]T[Hyp][hTyr(3S-OH,4S-OH,3'-OSO3H)][Gln(3R-OH)][Pro(3S-OH,4S-Me)]; lactam 1-C) |  |  |  | 0.18 |  |  | 
7 | CCCCCOc1ccc(-c2cc(-c3ccc(C(=O)N[C@H]4C[C@@H](O)[C@@H](O)NC(=O)[C@@H]5[C@@H](O)[C@@H](C)CN5C(=O)[C@H]([C@H](O)CC(N)=O)NC(=O)[C@H]([C@H](O)[C@@H](O)c5ccc(O)c(OS(=O)(=O)[O-])c5)NC(=O)[C@@H]5C[C@@H](O)CN5C(=O)[C@H]([C@@H](C)O)NC4=O)cc3)no2)cc1.[Na+] [Comparative Example 13] (X1-[Orn(4R-OH,5R-OH)]T[Hyp][hTyr(3S-OH,4S-OH,3'-OSO3H)][Gln(3R-OH)][Pro(3S-OH,4S-Me)]; lactam 1-C) |  |  |  | 0.2 |  |  | 
8 | CCCCCOc1ccc(-c2cc(-c3ccc(C(=O)N[C@H]4C[C@@H](O)[C@@H](O)NC(=O)[C@@H]5[C@@H](O)[C@@H](C)CN5C(=O)[C@H]([C@H](O)CC(N)=O)NC(=O)[C@H]([C@H](O)[C@@H](O)c5ccc(O)c(OS(=O)(=O)[O-])c5)NC(=O)[C@@H]5C[C@@H](O)CN5C(=O)[C@H]([C@@H](C)O)NC4=O)cc3)no2)cc1.[Na+] [Comparative Example 11] (X1-[Orn(4R-OH,5R-OH)]T[Hyp][hTyr(3S-OH,4S-OH,3'-OSO3H)][Gln(3R-OH)][Pro(3S-OH,4S-Me)]; lactam 1-C) |  |  |  | 0.11 |  |  | 
9 | CCCCCOc1ccc(-c2cc(-c3ccc(C(=O)N[C@H]4C[C@@H](O)[C@@H](O)NC(=O)[C@@H]5[C@@H](O)[C@@H](C)CN5C(=O)[C@H]([C@H](O)CC(N)=O)NC(=O)[C@H]([C@H](O)[C@@H](O)c5ccc(O)c(OS(=O)(=O)[O-])c5)NC(=O)[C@@H]5C[C@@H](O)CN5C(=O)[C@H]([C@@H](C)O)NC4=O)cc3)no2)cc1.[Na+] [Comparative Example 7] (X1-[Orn(4R-OH,5R-OH)]T[Hyp][hTyr(3S-OH,4S-OH,3'-OSO3H)][Gln(3R-OH)][Pro(3S-OH,4S-Me)]; lactam 1-C) |  |  |  | 0.2 |  |  | 
10 | CCCCCOc1ccc(-c2cc(-c3ccc(C(=O)N[C@H]4C[C@@H](O)[C@@H](O)NC(=O)[C@@H]5[C@@H](O)[C@@H](C)CN5C(=O)[C@H]([C@H](O)CC(N)=O)NC(=O)[C@H]([C@H](O)[C@@H](O)c5ccc(O)c(OS(=O)(=O)[O-])c5)NC(=O)[C@@H]5C[C@@H](O)CN5C(=O)[C@H]([C@@H](C)O)NC4=O)cc3)no2)cc1.[Na+] [Comparative Example 14] (X1-[Orn(4R-OH,5R-OH)]T[Hyp][hTyr(3S-OH,4S-OH,3'-OSO3H)][Gln(3R-OH)][Pro(3S-OH,4S-Me)]; lactam 1-C) |  |  |  | 0.19 |  |  | 
